Here are results for 3 compounds from US20240261273A1 (PRILENIA NEUROTHERAPEUTICS LTD., priority 2021, published 2024).

One data set addresses Sigma-1 Receptor (S1R) (Homo sapiens (Human), UniProt Q99720). Nature of the data set: In-vitro binding assay, Sigma-1 receptor (Eurofins Panlabs). Particulars: Cheng Prusoff equation.
In data set [1] the test system is optic nerve head astrocytes (ONHA). Put plainly: ONHA oxidative stress (ROS) after tBHP, DCF fluorescence. It counts as cell-based, rat. As to conditions: 0.05 μM alone, 16 h, then tBHP 80 μM 6 h. The procedure:
CM-H2DCFDA is cleaved to form non-fluorescent H2DCF, which is then oxidized to form the fluorescent DCF. DCF levels are indicative of ROS. Cell viability was also assessed using the commonly used colorimetric MTT assay.

The test system is the same in data set [2]. Nature of the data set: ONHA cell viability after tBHP oxidative stress, MTT assay. Particulars: 16 h, then tBHP 40 μM 6 h. In general terms: Tetrazolium dyes change colour on reduction, which living cells bring about.
Procedure: Cell viability was assessed using the MTT colorimetric assay.
In another data set the test system is RGCs. As to conditions: two experimental glaucoma models, elevated IOP.
The test system of the next data set is B104 neuroblastoma cells. Particulars: in-situ ELISA; Geva et al. 2016; cited from earlier work. A general note: In an ELISA, binding on a coated surface is turned into a signal by an enzyme label.

Structures are written as SMILES.

Sigma-1 Receptor (S1R), sequence (Q99720 whole entry, species assumed): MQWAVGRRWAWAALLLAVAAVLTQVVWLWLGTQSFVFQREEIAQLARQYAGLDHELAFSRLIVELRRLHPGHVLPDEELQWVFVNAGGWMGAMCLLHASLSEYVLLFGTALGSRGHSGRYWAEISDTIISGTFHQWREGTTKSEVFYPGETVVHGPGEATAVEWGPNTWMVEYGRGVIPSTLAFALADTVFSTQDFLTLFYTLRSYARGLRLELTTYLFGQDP

As to `CCCN1CCC(O)(c2cccc(S(C)(=O)=O)c2)CC1` [Compound 1], at Sigma-1 Receptor (S1R), the “S1R Ki” value is listed as “high affinity”. Moreover, in data set [1], the “reduction of oxidative stress (DCF fluorescence)” value is recorded as 5%. The “increase in cell viability” value in data set [2] (0.01 μM alone) is “neither pridopidine (0.05 μM) nor compound 1 (0.01 μM) have any effect”.
As for `CCCN1CC[C@@H](c2cccc(S(C)(=O)=O)c2)[C@@H](O)C1` [Compound 4], the “S1R Ki” value at Sigma-1 Receptor (S1R) was “high affinity”. Moreover, the “increase in cell viability” value in data set [2] (0.1 μM alone) was “neither pridopidine (0.05 μM) nor compound 4 (0.1 μM) have any effect”.
As for `CCCN1CCC(c2cccc(S(C)(=O)=O)c2)CC1` [Pridopidine, 4-(3-(Methylsulfonyl)phenyl)-1-propylpiperidine], the “reduction of oxidative stress (DCF fluorescence)” value in data set [1] stood at 30%. For the same compound, in the data set with RGCs, the “effect on RGCs” value is on record as “neuroprotective effect” and the “relation of protective effect to IOP” value was “not mediated by lowering IOP”. The “BDNF secretion in rat neuroblastoma cells” value with B104 neuroblastoma cells was “dose dependent increase”.
